In patent US8815857B2 (Boehringer Ingelheim International GmbH, priority 2011, dated 2014) one finds solubility and EC50 data, which are given here for 23 compounds.

The nature of data set [1]: Assessment of solubility: HT solubility in pION buffer, UV spectrophotometry. The note with it: kinetic from dmso stock.
Data set [2] deals with T1, human soluble guanylate cyclase alpha 1 and beta 1 subunits (sGC) stably expressed in Chinese hamster ovary cells (Homo sapiens, UniProt Q02108+Q02153).
T1 construct: expressed in transfected cells; host or cells: Chinese hamster ovary cells, stably transfected
T1 sequence (Q02108 1-690 partner): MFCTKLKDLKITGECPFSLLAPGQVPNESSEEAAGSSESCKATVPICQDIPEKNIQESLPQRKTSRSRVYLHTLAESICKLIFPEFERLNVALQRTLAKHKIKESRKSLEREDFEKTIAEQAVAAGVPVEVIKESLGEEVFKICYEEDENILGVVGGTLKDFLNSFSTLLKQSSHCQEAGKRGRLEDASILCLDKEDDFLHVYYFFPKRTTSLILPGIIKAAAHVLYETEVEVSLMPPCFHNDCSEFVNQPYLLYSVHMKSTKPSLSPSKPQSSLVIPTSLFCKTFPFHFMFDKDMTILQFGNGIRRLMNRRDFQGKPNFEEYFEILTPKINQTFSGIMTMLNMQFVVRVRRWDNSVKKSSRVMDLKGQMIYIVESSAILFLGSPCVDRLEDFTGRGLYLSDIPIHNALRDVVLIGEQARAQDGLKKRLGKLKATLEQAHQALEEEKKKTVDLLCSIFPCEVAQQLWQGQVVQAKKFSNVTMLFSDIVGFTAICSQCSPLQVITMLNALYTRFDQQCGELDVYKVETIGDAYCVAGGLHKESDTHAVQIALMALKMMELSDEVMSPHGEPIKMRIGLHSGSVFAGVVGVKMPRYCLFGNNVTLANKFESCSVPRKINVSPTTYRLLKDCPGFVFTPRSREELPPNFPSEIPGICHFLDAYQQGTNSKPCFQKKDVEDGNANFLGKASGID
T1 sequence (Q02153 1-619): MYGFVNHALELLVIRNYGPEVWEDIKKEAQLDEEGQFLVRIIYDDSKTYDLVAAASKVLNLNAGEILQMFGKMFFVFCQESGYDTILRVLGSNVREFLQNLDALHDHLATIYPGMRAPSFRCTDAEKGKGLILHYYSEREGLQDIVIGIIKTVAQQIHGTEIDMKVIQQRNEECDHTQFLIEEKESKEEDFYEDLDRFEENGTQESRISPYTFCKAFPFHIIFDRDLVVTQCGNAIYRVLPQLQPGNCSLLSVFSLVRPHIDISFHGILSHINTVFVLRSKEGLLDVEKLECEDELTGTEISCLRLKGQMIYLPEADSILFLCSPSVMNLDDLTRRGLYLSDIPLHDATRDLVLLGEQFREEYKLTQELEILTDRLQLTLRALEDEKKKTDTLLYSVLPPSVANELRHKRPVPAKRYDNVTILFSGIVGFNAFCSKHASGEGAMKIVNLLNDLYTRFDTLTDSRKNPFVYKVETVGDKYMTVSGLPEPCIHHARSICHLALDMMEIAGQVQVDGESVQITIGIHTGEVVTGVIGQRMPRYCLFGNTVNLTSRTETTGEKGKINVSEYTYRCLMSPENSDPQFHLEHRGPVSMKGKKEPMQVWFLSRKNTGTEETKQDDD
As to the kind of experiment: sGC cellular activator assay: cGMP in CHO cells expressing human sGC, preincubated with ODQ. It is filed as cell-based. The note with it: 40 microM ODQ preincubation, 30 min at room temperature, presence or absence of 50% human serum not given, read-out: EC50 nM, Activity of Compounds in Cellular Assay. The gist of the method:
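EC50 values derive from HTRF cGMP measurement after test compounds act for thirty minutes at room temperature, with or without 50% human serum. Before dosing, the sGC-transfected CHO cells spend one hour with the inhibitor ODQ (40 microM) in IBMX- and 0.1% BSA-containing buffer.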

Data set [3] has as its target T2, Recombinant human soluble guanylate cyclase (sGC), alpha 1 / beta 1 subunits, heme-free (Homo sapiens, UniProt Q02108+Q02153).
T2 construct: histidine tag (C); made in house; host or cells: Sf9 insect cells (baculovirus coinfection)
T2 sequence (Q02108 1-690 partner): T1 sequence (Q02108 1-690 partner)
T2 sequence (Q02153 1-619): T1 sequence (Q02153 1-619)
As to the kind of experiment: Molecular assay: cGMP formation by heme-free recombinant sGC (CisBio cGMP detection kit). It is filed as biochemical. The note with it: 300 pM heme-free sGC, 37° C., 60 min, cGMP readout; read-out: EC50 nM, Activity of Compounds in Molecular Assay. The gist of the method: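 Heme-free His-tagged sGC (Sf9-expressed, Tween 20-treated lysate) at 300 pM incubated with compounds (1% DMSO) for 60 min at 37° C in MOPS pH 6.8 with 50 nM GTP, IBMX, TCEP. cGMP quantified by HTRF against calibration curve; EC50 from combined undiluted/diluted values.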

The mark [4] stands for this setting: pION system solution buffer, pH 4.5, pH 4.5, aqueous buffer, Solubility (pH 4.5), pH 4.5 buffer, 16-19 h incubation, 1.0% DMSO.
Where [5] appears, read: pION system solution buffer, pH 7.4, pH 7.4, aqueous buffer, Solubility (pH 7.4), pH 7.4 buffer, 16-19 h incubation, 1.0% DMSO.
[6] abbreviates: pH 6.8, aqueous buffer, Solubility (pH 6.8), pH 6.8.

Converted amounts (≈) assume the structure as drawn.

On to `Cc1cc(CN2CCS(=O)(=O)CC2)ccc1COc1c(C)cccc1-c1csc(N2C[C@H]3CC[C@@H](C2)[C@H]3C(=O)O)n1` [Compound 203], for which the solubility in data set [1] (setting [4]) was 3 µg/mL (≈ 5.04 µM); in data set [1] (setting [5]), greater than 59 µg/mL. The EC50 is 68 nM in data set [2] and 23 nM in data set [3].
`Cc1ccc(OCc2ccc(CN3CCS(=O)(=O)CC3)cc2C)c(-c2csc(N3CCC(C(=O)O)C(C)C3)n2)c1` (centres unmarked) [Compound 204]: the figures for the solubility in data set [1] (setting [4]) and in data set [1] (setting [5]) were 0.35 µg/mL (≈ 0.6 µM) and 54 µg/mL (≈ 92.5 µM), respectively. Moreover, the results for the EC50 in data set [2] and in data set [3] were 17 nM and 28 nM, respectively.
Consider `Cc1cc(CN2CCS(=O)(=O)CC2)ccc1COc1c(C)cccc1-c1csc(N2C3CCC2CC(C(=O)O)C3)n1` (centres unmarked) [Compound 205], for which the solubility in data set [1] (setting [4]) was 9.5 µg/mL (≈ 15.9 µM); in data set [1] (setting [5]), greater than 59 µg/mL. Further, the EC50 in data set [2] turned out to be 200 nM; in data set [3], 80 nM.
In the same order, the values of `Cc1cc(CN2CCOCC2)ccc1COc1c(C)cccc1-c1csc(N2C[C@H]3CC[C@@H](C2)[C@H]3C(=O)O)n1` [Compound 206] are greater than 58 µg/mL, greater than 58 µg/mL, 88 nM and 170 nM.
In the same order, the values of `Cc1cc(CN2CCS(=O)(=O)CC2)ccc1COc1ccc(Cl)cc1-c1csc(N2C3CCC2CC(C(=O)O)C3)n1` (centres unmarked) [Compound 207] are 0.95 µg/mL (≈ 1.54 µM), 30 µg/mL (≈ 48.7 µM), 93 nM and 170 nM.
In the same order, the values of `Cc1cc(C(=O)N2CCCCC2)ccc1COc1c(C)cccc1-c1csc(N2C[C@H]3CC[C@@H](C2)[C@H]3C(=O)O)n1` [Compound 208] are 0.3 µg/mL (≈ 0.536 µM), greater than 55 µg/mL, 39 nM and 250 nM.
With `Cc1cc(C(=O)N2CCCCC2)ccc1COc1c(C)cccc1-c1csc(N2C3CCC2CC(C(=O)O)C3)n1` (centres unmarked) [Compound 209], the solubility in data set [1] (setting [4]) was 5.1 µg/mL (≈ 9.11 µM); in data set [1] (setting [5]), greater than 55 µg/mL. Further, the EC50 was found to be 96 nM in data set [2] and 270 nM in data set [3].
As to `Cc1cc(CN2CCOCC2)ccc1COc1c(C)cccc1-c1csc(N2C3CCC2CC(C(=O)O)C3)n1` (centres unmarked) [Compound 210], the solubility in data set [1] (setting [4]) and in data set [1] (setting [5]) was greater than 58 µg/mL in each case. In addition, the concentration for a half-maximal effect (EC50) came to 430 nM in data set [2] and 350 nM in data set [3].
`Cc1cc(CN2CCS(=O)(=O)CC2)ccc1COc1ccc(Cl)cc1-c1csc(N2CC3CCC(C2)C3C(=O)O)n1` (centres unmarked) [Compound 211]: the figures for the solubility in data set [1] (setting [4]) and in data set [1] (setting [5]) were 1.4 µg/mL (≈ 2.27 µM) and 17 µg/mL (≈ 27.6 µM), respectively. Further, the EC50 stood at 190 nM in data set [2] and 370 nM in data set [3].
On to `Cc1ccc(OCc2ccc(C(=O)N3CCCCC3)cc2C)c(-c2csc(N3C[C@H]4CC[C@@H](C3)[C@@]4(C)C(=O)O)n2)c1` [Compound 214], for which the solubility in data set [1] (setting [6]) was 51 µg/mL (≈ 88.9 µM); in data set [1] (setting [4]), less than 0.1 µg/mL; in data set [1] (setting [5]) it was 21 µg/mL (≈ 36.6 µM). The EC50 in data set [2] is 15 nM; in data set [3], 22 nM.
Turning to `Cc1ccc(OCc2ccc(CN3CCS(=O)(=O)CC3)cc2C)c(-c2csc(N3CCC4(C(=O)O)CC4C3)n2)c1` (centres unmarked) [Compound 217], the solubility in data set [1] (setting [4]) turned out to be 0.95 µg/mL (≈ 1.63 µM); in data set [1] (setting [5]), 34 µg/mL (≈ 58.4 µM). The EC50 came to 8.7 nM in data set [2] and 49 nM in data set [3].
In the same order, the values of `Cc1ccc(OCc2ccc(CN3CCOCC3)cc2C)c(-c2csc(N3CCC4(C(=O)O)CC4C3)n2)c1` (centres unmarked) [Compound 218] are greater than 64 µg/mL, 39 µg/mL (≈ 73.1 µM), 18 nM and 170 nM.
Take `Cc1ccc(OCc2ccc(CN3CCS(=O)(=O)CC3)cc2C)c(-c2csc(N3CCC(CC(=O)O)CC3)n2)c1` [Compound 219]: the solubility was found to be 2.4 µg/mL (≈ 4.11 µM) in data set [1] (setting [4]) and 41 µg/mL (≈ 70.2 µM) in data set [1] (setting [5]). Further, the EC50 in data set [2] came to 300 nM; in data set [3], 1000 nM.
In the case of `Cc1ccc(OCc2ccc(CN3CCS(=O)(=O)CC3)cc2C)c(-c2csc(N3CCCC(C(=O)O)CC3)n2)c1` (centres unmarked) [Compound 234], the solubility in data set [1] (setting [4]) is 3.3 µg/mL (≈ 5.65 µM); in data set [1] (setting [5]) it was greater than 58 µg/mL. Moreover, the EC50 in data set [2] turned out to be 7.9 nM; in data set [3], 6 nM.
Regarding `Cc1ccc(OCc2ccc(CN3CCS(=O)(=O)CC3)cc2C)c(-c2csc(N3C[C@H]4C[C@@H](C3)[C@H]4C(=O)O)n2)c1` [Compound 235], the solubility in data set [1] (setting [4]) is 8.1 µg/mL (≈ 13.9 µM); in data set [1] (setting [5]), greater than 58 µg/mL. The EC50 turned out to be 57 nM in data set [2] and 47 nM in data set [3].
The matching figures for `Cc1ccc(OCc2ccc(C(=O)N3CCCCC3)cc2C)c(-c2csc(N3C[C@H]4C[C@@H](C3)[C@H]4C(=O)O)n2)c1` [Compound 236]: 6.6 µg/mL (≈ 12.1 µM), greater than 54 µg/mL, 79 nM and 190 nM.
For `Cc1ccc(OCc2ccc(CN3CCOCC3)cc2C)c(-c2csc(N3C[C@H]4C[C@@H](C3)[C@H]4C(=O)O)n2)c1` [Compound 237], the solubility in data set [1] (setting [4]) and in data set [1] (setting [5]) was greater than 53 µg/mL throughout. Moreover, the EC50 in data set [2] was 130 nM; in data set [3] it was 240 nM.
Turning to `Cc1ccc(OCc2ccc(C(=O)N3CCCCC3)cc2C)c(-c2csc(N[C@@H]3CC[C@H](C(=O)O)C3)n2)c1` [Compound 239], the solubility in data set [1] (setting [4]) was 2.7 µg/mL (≈ 5.06 µM); in data set [1] (setting [5]), greater than 53 µg/mL. Besides, the EC50 in data set [2] was 650 nM; in data set [3], 2900 nM.
`Cc1ccc(OCc2ccc(CN3CCO[C@H](C)C3)cc2C#N)c(-c2csc(N3C[C@H]4CC[C@@H](C3)[C@H]4C(=O)O)n2)c1` [Compound 357]: the solubility in data set [1] (setting [6]) was found to be 11 µg/mL (≈ 19.2 µM); in data set [1] (setting [4]) it was 2.3 µg/mL (≈ 4.02 µM). The EC50 in data set [2] is 24 nM.
In the same order, the values of `Cc1ccc(OCc2ccc(CN3CCOC(C)(C)C3)cc2C#N)c(-c2csc(N3C[C@H]4CC[C@@H](C3)[C@H]4C(=O)O)n2)c1` [Compound 358] are 8.1 µg/mL (≈ 13.8 µM), 0.14 µg/mL (≈ 0.239 µM) and 30 nM.
In the same order, the values of `Cc1ccc(OCc2ccc(CN3CCOCC3C)cc2C#N)c(-c2csc(N3C[C@H]4CC[C@@H](C3)[C@H]4C(=O)O)n2)c1` (some centres unmarked) [Compound 359] are 5.8 µg/mL (≈ 10.1 µM), 12 µg/mL (≈ 21 µM) and 36 nM.
In data set [1] (setting [6]), `Cc1ccc(OCc2ccc(C(=O)N3CC(F)(F)C3)cc2C)c(-c2csc(N3C[C@H]4CC[C@@H](C3)[C@H]4C(=O)O)n2)c1` [Compound 360] returned a solubility of 33 µg/mL (≈ 58.1 µM). In data set [2], the EC50 was 21 nM.
The matching figures for `Cc1ccc(OCc2ccc(C(=O)N3CCC3)cc2C)c(-c2csc(N3C[C@H]4CC[C@@H](C3)[C@H]4C(=O)O)n2)c1` [Compound 361, 3-(4-{2-[4-(azetidine-1-carbonyl)-2-methyl-benzyloxy]-5-methyl-phenyl}-thiazol-2-yl)-3-aza-bicyclo[3.2.1]octane-8(syn)-carboxylic acid]: 34 µg/mL (≈ 63.9 µM) and 17 nM.

Usually solubility stands for the dissolved amount per volume that the medium holds. In general, EC50 refers to the concentration that produces a half-maximal response.
